Tests used:
[1] = test system: ORYSAT (Rice, Tebonnet); assay: Preemergence herbicidal evaluation; assay type: in vivo, Oryza sativa, (L.) Tebonnet; details: rated 4-5 weeks after treatment, rating scale 0-9
How it was run: (§1)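 Herbicidal effect scored visually, 0-9, at 4 to 5 weeks against a control; compound applied preemergence by aqueous acetone spray to seeded soil at about 0.0156 to 0.500 kg/ha.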

[2] = test system: CYPSE (Flatsedge); assay: Preemergence weed control under flooded paddy conditions; assay type: in vivo, Cyperus serotinus; details: rated 3-4 weeks after treatment
How it was run: (§2)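 Herbicidal effect is scored visually on a 0-9 scale against an untreated control, three to four weeks after compounds are pipetted into the flood water (1.5 to 3 cm deep) over seeds planted in silt loam at 0.5 cm depth. Rates: about 0.0313 to 0.500 kg/ha.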

[3] = test system: CASOB (Sicklepod); assay: Postemergence herbicidal evaluation; assay type: in vivo, Cassia obtusifolia; details: postemergence
How it was run: (§3)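 ~2-wk seedlings; postemergence spray, 40 psi; vehicle 1:1 acetone:water + 0.5% Tween 20; rate ≈0.0156–0.500 kg/ha; greenhouse hold; scored 4–5 wk after treatment, 0–9 scale vs control; repeat tests averaged.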

[4] = test system: GALAP (Galium); assay: Postemergence herbicidal evaluation; assay type: in vivo, Galium aparine; details: postemergence
How it was run: as §3

[5] = test system: ECHORC (Watergrass (Calif.)); assay: Preemergence weed control under flooded paddy conditions; assay type: in vivo, Echinochloa oryzoides; details: rated 3-4 weeks after treatment
How it was run: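 Ratings on a 0-9 visual scale cover stand, vigor, malformation, size, chlorosis and overall appearance relative to a control, taken three to four weeks post-treatment. Application was into flood water over freshly sown silt loam at roughly 0.0313 to 0.500 kg/ha.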

[6] = test system: TRZAWR (Wheat, Winter, cv Riband); assay: Postemergence herbicidal evaluation; assay type: in vivo, Triticum aestivum; details: postemergence
How it was run: as §3

[7] = test system: AMBEL (Ragweed, Common); assay: Postemergence herbicidal evaluation; assay type: in vivo, Ambrosia artemisifolia; details: postemergence
How it was run: as §3

[8] = test system: SETVI (Foxtail, Green); assay: Preemergence herbicidal evaluation; assay type: in vivo, Setaria viridis; details: rated 4-5 weeks after treatment, rating scale 0-9
How it was run: as §1

[9] = test system: SAGPY (Arrowhead (Pygmaea)); assay: Preemergence weed control under flooded paddy conditions; assay type: in vivo, Sagittaria pygmaea; details: rated 3-4 weeks after treatment
How it was run: as §2

[10] = test system: MOOVA (Monochoria); assay: as above; assay type: in vivo, Monochoria vaginalis; details: rated 3-4 weeks after treatment
How it was run: as §2

[11] = test system: GALAP (Galium); assay: Preemergence herbicidal evaluation; assay type: in vivo, Galium aparine; details: rated 4-5 weeks after treatment, rating scale 0-9
How it was run: as §1

[12] = test system: GLXMAW (Soybean, Williams); assay: Postemergence herbicidal evaluation; assay type: in vivo, Glycine max, (L.) Merr. cv Williams; details: postemergence
How it was run: as §3

## Cn1c(C(F)(F)F)cc(=O)n(-c2cc(N=C3SCC(=O)N3Cc3ccc(C(F)(F)F)cc3)c(Cl)cc2F)c1=O [Compound 141, 3-{4-Chloro-2-fluoro-5-{{3-[p-(trifluoromethyl)benzyl]-4-oxo-2-thiazolidinylidene}-amino}phenyl}-1-methyl-6-(trifluoromethyl)-2,4 (1H, 3H)-pyrimidinedione]
[1]; rate 0.0156 kg/ha
  Preemergence herbicidal rating ORYSAT: 0.0
[1]; rate 0.0313 kg/ha
  Preemergence herbicidal rating ORYSAT: 0.0
[1]; rate 0.0625 kg/ha
  Preemergence herbicidal rating ORYSAT: 0.0
[1]; rate 0.1250 kg/ha
  Preemergence herbicidal rating ORYSAT: 0.0
[1]; rate 0.2500 kg/ha
  Preemergence herbicidal rating ORYSAT: 0.0
[2]; 0.0313 kg/ha
  herbicidal effect rating, CYPSE: 0.0
[2]; 0.0625 kg/ha
  herbicidal effect rating, CYPSE: 0.0
[2]; 0.1250 kg/ha
  herbicidal effect rating, CYPSE: 0.0
[2]; 0.2500 kg/ha
  herbicidal effect rating, CYPSE: 0.0
[3]; rate 0.0156 kg/ha
  Herbicidal rating CASOB: 0.0
[3]; rate 0.0313 kg/ha
  Herbicidal rating CASOB: 0.0
[3]; rate 0.0625 kg/ha
  Herbicidal rating CASOB: 0.0
[4]; rate 0.0156 kg/ha
  Herbicidal rating GALAP: 0.0
[4]; rate 0.0313 kg/ha
  Herbicidal rating GALAP: 2.0
[4]; rate 0.0625 kg/ha
  Herbicidal rating GALAP: 2.0
[5]; 0.0313 kg/ha
  herbicidal effect rating, ECHORC: 5.0
[5]; 0.0625 kg/ha
  herbicidal effect rating, ECHORC: 5.0
[5]; 0.1250 kg/ha
  herbicidal effect rating, ECHORC: 7.0
[5]; 0.2500 kg/ha
  herbicidal effect rating, ECHORC: 7.0
[6]; rate 0.0156 kg/ha
  Herbicidal rating TRZAWR: 3.0
[6]; rate 0.0313 kg/ha
  Herbicidal rating TRZAWR: 3.5
[6]; rate 0.0625 kg/ha
  Herbicidal rating TRZAWR: 4.5
[7]; rate 0.0156 kg/ha
  Herbicidal rating AMBEL: 7.0
[7]; rate 0.0313 kg/ha
  Herbicidal rating AMBEL: 7.0
[7]; rate 0.0625 kg/ha
  Herbicidal rating AMBEL: 9.0
[8]; rate 0.0156 kg/ha
  Preemergence herbicidal rating SETVI: 0.0
[8]; rate 0.0313 kg/ha
  Preemergence herbicidal rating SETVI: 0.0
[8]; rate 0.0625 kg/ha
  Preemergence herbicidal rating SETVI: 0.0
[8]; rate 0.1250 kg/ha
  Preemergence herbicidal rating SETVI: 0.0
[8]; rate 0.2500 kg/ha
  Preemergence herbicidal rating SETVI: 4.0
[9]; 0.0313 kg/ha
  herbicidal effect rating, SAGPY: 4.0
[9]; 0.0625 kg/ha
  herbicidal effect rating, SAGPY: 5.0
[9]; 0.1250 kg/ha
  herbicidal effect rating, SAGPY: 5.0
[9]; 0.2500 kg/ha
  herbicidal effect rating, SAGPY: 6.0
[10]; 0.0313 kg/ha
  herbicidal effect rating, MOOVA: 7.0
[10]; 0.0625 kg/ha
  herbicidal effect rating, MOOVA: 8.0
[10]; 0.1250 kg/ha
  herbicidal effect rating, MOOVA: 8.0
[10]; 0.2500 kg/ha
  herbicidal effect rating, MOOVA: 9.0
[11]; rate 0.0156 kg/ha
  Preemergence herbicidal rating GALAP: 0.0
[11]; rate 0.0313 kg/ha
  Preemergence herbicidal rating GALAP: 0.0
[11]; rate 0.0625 kg/ha
  Preemergence herbicidal rating GALAP: 0.0
[11]; rate 0.1250 kg/ha
  Preemergence herbicidal rating GALAP: 0.0
[11]; rate 0.2500 kg/ha
  Preemergence herbicidal rating GALAP: 0.0
[12]; rate 0.0156 kg/ha
  Herbicidal rating GLXMAW: 4.0
[12]; rate 0.0313 kg/ha
  Herbicidal rating GLXMAW: 4.0
[12]; rate 0.0625 kg/ha
  Herbicidal rating GLXMAW: 4.5

## Cn1c(C(F)(F)F)cc(=O)n(-c2cc(N=C3SCC(=O)N3Cc3ccc(Cl)c(Cl)c3)c(Cl)cc2F)c1=O [Compound 144, 3-{4-Chloro-5-{[3-(3,4-dichlorobenzyl)-4-oxo-2-thiazolidinylidene]amino}-2-fluorophenyl}-1-methyl-6-(trifluoromethyl)-2,4(1H,3H)-pyrimidinedione]
[1]; rate 0.0156 kg/ha
  Preemergence herbicidal rating ORYSAT: 0.0
[1]; rate 0.0313 kg/ha
  Preemergence herbicidal rating ORYSAT: 0.0
[1]; rate 0.0625 kg/ha
  Preemergence herbicidal rating ORYSAT: 0.0
[1]; rate 0.1250 kg/ha
  Preemergence herbicidal rating ORYSAT: 0.0
[1]; rate 0.2500 kg/ha
  Preemergence herbicidal rating ORYSAT: 0.0
[2]; 0.0313 kg/ha
  herbicidal effect rating, CYPSE: 7.0
[2]; 0.0625 kg/ha
  herbicidal effect rating, CYPSE: 7.0
[2]; 0.1250 kg/ha
  herbicidal effect rating, CYPSE: 9.0
[2]; 0.2500 kg/ha
  herbicidal effect rating, CYPSE: 9.0
[3]; rate 0.0156 kg/ha
  Herbicidal rating CASOB: 3.0
[3]; rate 0.0313 kg/ha
  Herbicidal rating CASOB: 5.0
[3]; rate 0.0625 kg/ha
  Herbicidal rating CASOB: 7.0
[4]; rate 0.0156 kg/ha
  Herbicidal rating GALAP: 3.0
[4]; rate 0.0313 kg/ha
  Herbicidal rating GALAP: 3.0
[4]; rate 0.0625 kg/ha
  Herbicidal rating GALAP: 4.0
[5]; 0.0313 kg/ha
  herbicidal effect rating, ECHORC: 0.0
[5]; 0.0625 kg/ha
  herbicidal effect rating, ECHORC: 0.0
[5]; 0.1250 kg/ha
  herbicidal effect rating, ECHORC: 1.0
[5]; 0.2500 kg/ha
  herbicidal effect rating, ECHORC: 3.0
[6]; rate 0.0156 kg/ha
  Herbicidal rating TRZAWR: 3.5
[6]; rate 0.0313 kg/ha
  Herbicidal rating TRZAWR: 3.5
[6]; rate 0.0625 kg/ha
  Herbicidal rating TRZAWR: 4.0
[7]; rate 0.0156 kg/ha
  Herbicidal rating AMBEL: 7.0
[7]; rate 0.0313 kg/ha
  Herbicidal rating AMBEL: 9.0
[7]; rate 0.0625 kg/ha
  Herbicidal rating AMBEL: 9.0
[8]; rate 0.0156 kg/ha
  Preemergence herbicidal rating SETVI: 0.0
[8]; rate 0.0313 kg/ha
  Preemergence herbicidal rating SETVI: 0.0
[8]; rate 0.0625 kg/ha
  Preemergence herbicidal rating SETVI: 2.0
[8]; rate 0.1250 kg/ha
  Preemergence herbicidal rating SETVI: 9.0
[8]; rate 0.2500 kg/ha
  Preemergence herbicidal rating SETVI: 9.0
[9]; 0.0313 kg/ha
  herbicidal effect rating, SAGPY: 0.0
[9]; 0.0625 kg/ha
  herbicidal effect rating, SAGPY: 0.0
[9]; 0.1250 kg/ha
  herbicidal effect rating, SAGPY: 2.0
[9]; 0.2500 kg/ha
  herbicidal effect rating, SAGPY: 4.0
[10]; 0.0313 kg/ha
  herbicidal effect rating, MOOVA: 6.0
[10]; 0.0625 kg/ha
  herbicidal effect rating, MOOVA: 9.0
[10]; 0.1250 kg/ha
  herbicidal effect rating, MOOVA: 9.0
[10]; 0.2500 kg/ha
  herbicidal effect rating, MOOVA: 9.0
[11]; rate 0.0156 kg/ha
  Preemergence herbicidal rating GALAP: 1.0
[11]; rate 0.0313 kg/ha
  Preemergence herbicidal rating GALAP: 1.0
[11]; rate 0.0625 kg/ha
  Preemergence herbicidal rating GALAP: 1.0
[11]; rate 0.1250 kg/ha
  Preemergence herbicidal rating GALAP: 2.0
[11]; rate 0.2500 kg/ha
  Preemergence herbicidal rating GALAP: 2.0
[12]; rate 0.0156 kg/ha
  Herbicidal rating GLXMAW: 5.0
[12]; rate 0.0313 kg/ha
  Herbicidal rating GLXMAW: 5.5
[12]; rate 0.0625 kg/ha
  Herbicidal rating GLXMAW: 6.5
